Several values for one entry are separate records, joined by “and”; a condition that tells them apart may be missing. Equal values may be shown once. Read-outs that look alike come from different tables or passages of the source.
Legend:
[1] = target: T1, A. terreus ODC (Aspergillus terreus, UniProt A0ACN5CWH9); format: biochemical; settings: Nessler's, diacetylmonoxime and TNBS assays
Protocol: (§1) The specificity of purified A. terreus ODC towards various amino acids as substrates has been evaluated based on the putative enzymatic byproducts such as ammonia, citrulline and putrescine (see Materials and Methods). […] The putative deaminating, deiminating and decarboxylating activity of ODC for each substrate was assessed (Table 3).
(§2) The putative enzymatic byproducts such as ammonia, citrulline and putrescine were determined by Nessler’s reagent, diacetylmonoxime reagent and TNBS [42], respectively, under standard conditions. The kinetic parameters of A. terreus ODC; Michalis-Menten constant (Km), maximum velocity (Vmax), and turnover number (kcat) and catalytic efficiency towards the most hydrolysable amino acids were calculated.

[2] = target: T1, A. terreus ODC; assay: Effect of inhibitors on activity of purified A. terreus ODC (residual activity, standard TNBS assay); format: biochemical; settings: for Relative Activity (%): enzyme preincubated 2 h, then L-ornithine, residual ODC activity; for IC50: 2 h preincubation; for activity at 5 µg/mL / activity at 40 µg/mL / activity at 200 µg/mL / activity at 400 µg/mL: read-out: Relative Activity (%)
From the text: The amino acid identity of the active sites implicated in the catalysis of A. terreus ODC has been scrutinized by the response to suicide inhibitors, namely propargylgycine (PPG), guanidine thiocyanate, hydroxylamine, iodoacetamide, DTNB, MBTH and curcumin. […] Consistently, curcumin has been extensively reported a strong inhibitor to the activity of tumor cells ODC, modulating the cellular polyamine metabolism. Elevated polyamine synthesis was recognized as profound compounds for survival and rapid proliferation of tumor cells, thus, targeting the ODC, rate limiting enzyme of polyamine synthesis, has been considered as powerful chemopreventive therapy for tumor cells. […] The enzyme irreversible inactivation by carbonyl reagents such as PPG, ensures the PLP dependence of these enzymes.
(§3) The activity of ODC was determined based on the amount of released putrescine using 2,4,6-tri-nitrobenzene sulfonic acid (TNBS) reagent. […] The reaction was stopped by 10% TCA then neutralized by adding adequate amount of 2N NaOH. 1-Pentanol (2 mL) was added was added to the reaction mixture which was subsequently vortexed for 1 min and centrifuged at 5000 rpm for 5 min. The upper layer was transferred into a new tube, combined with an equal volume of 0.1 M sodium borate (pH 8.0). After vigorously mixing, 500 µL of TNBS (10 mM) reagent was added, subjected to 1 min vortex before adding 2 mL DMSO, and centrifuging at 6000 rpm for 5 min and left to separate into two layers. The upper layer containing TNP-putrescine-TNP was collected by micropipette and the absorbance at λ = 420 nm will reveal putrescine concentration based on a parallel measurement of authentic putrescine at the same conditions. The enzyme protein concentration was measured by Folinʹs reagent, comparing to a known concentration of bovine serum albumin.
Active site prediction using amino acids analogues has been recognized as one of the mechanisms for interrogation of enzymatic identity. The influence of various inhibitors namely 5,5′-dithiobis-2-nitrobenzoic acid, 3-methyl-2-benzothiazolinone-hydrazone, guanidine thiocyanate, iodoacetamide, hydroxylamine, propargylglycine and curcumin on the activity of purified ODC was estimated. The enzyme was incubated with different inhibitor concentrations (5, 40, 200, 400 µg/mL) for 2 h at 30 °C, then amended with the substrate, and the residual activity of the enzyme were determined by the standard assay. The inhibitory kinetic parameters were measured according to El-Sayed et al.

[3] = target: T1, A. terreus ODC; assay: Substrate specificity of purified ODC, diacetyl monoxime assay (citrulline / imino groups); format: biochemical; settings: for Diacetyl Monoxime Assay Activity: amino acid as substrate
Protocol: as §1, §2

[4] = target: T1, A. terreus ODC; assay: Substrate specificity of purified ODC, TNBS assay (putrescine); format: biochemical; settings: released putrescine; for TNBS Assay Activity: amino acid as substrate; for TNBS Assay Relative Activity: normalized to L-ornithine
Protocol: as §1, §3, §2

[5] = target: T1, A. terreus ODC; assay: Substrate specificity of purified ODC, Nessler's assay (ammonia); format: biochemical; settings: for Nessler's Assay Activity: amino acid as substrate; for Nessler's Assay Relative Activity: normalized to L-ornithine as standard substrate
Protocol: as §1, §2

[6] = target: T1, A. terreus ODC; assay: Kinetic parameters of A. terreus ODC for substrates; settings: substrate of A. terreus ODC
Protocol: as §1, §2

[7] = test system: N=C(N)NCCC[C@H](N)C(=O)O; assay: purified protein, by the assay type; settings: other: substrate of A. terreus ODC
Protocol: (§4) The putative enzymatic byproducts such as ammonia, citrulline and putrescine were determined by Nessler’s reagent [66], diacetylmonoxime reagent [36] and TNBS [42], respectively, under standard conditions. The kinetic parameters of A. terreus ODC; Michalis-Menten constant (Km), maximum velocity (Vmax), and turnover number (kcat) and catalytic efficiency towards the most hydrolysable amino acids were calculated.

[8] = test system: NCCCC[C@H](N)C(=O)O; assay: purified protein, by the assay type; settings: other: substrate of A. terreus ODC
Protocol: as §4

In the case of `NCC(=O)O` [L-glycine], the “affinity of purified ODC towards the amino acid as substrate” value (from here on “affinity”) [1] is reported as “no detectable affinity”.

`O=C(O)c1cc(SSc2ccc([N+](=O)[O-])c(C(=O)O)c2)ccc1[N+](=O)[O-]` [5-5′-Dithiobis-(2-nitro-benzoic acid), 5,5′-dithiobis-2-nitrobenzoic acid] was tested, and the “Relative Activity (%)” value ([2]; inhibitor 5 µg/mL) was 39%, the “Relative Activity (%)” value ([2]; inhibitor 40 µg/mL) was 27% and the “Relative Activity (%)” value ([2]; inhibitor 200 µg/mL) was 14%. The “Relative Activity (%)” value ([2]; inhibitor 400 µg/mL) was 5.8%.

For `NC(=O)CC[C@H](N)C(=O)O` [L-glutamine], the “affinity” value [1] was “no detectable affinity”.

For `C#CCC(N)C(=O)O` (stereo not drawn) [Propargylgycine, propargylglycine], the “Relative Activity (%)” value ([2]; inhibitor 5 µg/mL) was 89%, the “Relative Activity (%)” value ([2]; inhibitor 40 µg/mL) was 30% and the “Relative Activity (%)” value ([2]; inhibitor 200 µg/mL) was 17%. For the same compound, the “Relative Activity (%)” value ([2]; inhibitor 400 µg/mL) was 6% and the IC50 ([2]; purified A. terreus ODC) was 20.9 µg/mL.

With `N=C(N)NCCC[C@H](N)C(=O)O` [L-Arginine] the “Diacetyl Monoxime Assay Relative Activity” value [3] was 194%, the “Diacetyl Monoxime Assay Activity” value ([3]; deiminating activity) was 0.0068 µmol/mg/min and the “TNBS Assay Activity” value [4] was 0.34 µmol/mg/min. For the same compound, the “TNBS Assay Relative Activity” value [4] was 16.2%, the “Nessler's Assay Activity” value [5] was 0.35 µmol/mg/min and the “Nessler's Assay Relative Activity” value [5] was 19%.

With `CSCC[C@H](N)C(=O)O` [L-methionine] the “affinity” value [1] was “no detectable affinity”.

For `NO` [Hydroxylamine, hydroxylamine], the “Relative Activity (%)” value ([2]; inhibitor 5 µg/mL) was 45%, the “Relative Activity (%)” value ([2]; inhibitor 40 µg/mL) was 13% and the “Relative Activity (%)” value ([2]; inhibitor 200 µg/mL) was 0%. For the same compound, the “Relative Activity (%)” value ([2]; inhibitor 400 µg/mL) was 0%.

`NC(=O)CI` [Iodoacetamide, iodoacetamide] was tested, and the “Relative Activity (%)” value ([2]; inhibitor 5 µg/mL) was 37%, the “Relative Activity (%)” value ([2]; inhibitor 40 µg/mL) was 19% and the “Relative Activity (%)” value ([2]; inhibitor 200 µg/mL) was 10%. For the same compound, the “Relative Activity (%)” value ([2]; inhibitor 400 µg/mL) was 0%.

For `NC(=O)C[C@H](N)C(=O)O` [L-asparagine], the “affinity” value [1] was “no detectable affinity”.

With `C[C@H](N)C(=O)O` [L-alanine] the “affinity” value [1] was “no detectable affinity”.

With `N#CS.N=C(N)N` [Guanidine thiocyanate, guanidine thiocyanate] the “Relative Activity (%)” value ([2]; inhibitor 5 µg/mL) was 90%, the “Relative Activity (%)” value ([2]; inhibitor 40 µg/mL) was 60% and the “Relative Activity (%)” value ([2]; inhibitor 200 µg/mL) was 30%.

With `Cn1c(=NN)sc2ccccc21` [3-Methyl-2-benzo-thiazolinone hydrazone, 3-methyl-2-benzothiazolinone-hydrazone] the activity at 5 µg/mL [2] was 41%, the activity at 40 µg/mL [2] was 29% and the activity at 200 µg/mL [2] was 12%. It also gave an activity at 400 µg/mL [2] of 0%.

For `NCCC[C@H](N)C(=O)O` [L-Ornithine], the Km [6] was 950 µM, the Vmax [6] was 4.8 µmol/mg/min and the Km ([6]; listed as L-ornithine) was 900 µM. For the same compound, the “Diacetyl Monoxime Assay Activity” value ([3]; deiminating activity) was 0.0035 µmol/mg/min, the “TNBS Assay Activity” value [4] was 2.1 µmol/mg/min and the “Nessler's Assay Activity” value [5] was 1.87 µmol/mg/min.

`CC(=O)N[C@@H]1[C@@H](O)[C@H](O)[C@@H](CO)O[C@H]1O` [N-acetylglucosamine] was tested, and the “affinity” value [1] was “no detectable affinity”.

In the case of `COc1cc(/C=C/C(=O)CC(=O)/C=C/c2ccc(O)c(OC)c2)ccc1O` [Curcumin, diferuloylmethane], the IC50 ([2]; IC50, purified A. terreus ODC) is reported as ~109 nM and 109 nM, the activity at 5 µg/mL [2] is reported as 11% and the activity at 40 µg/mL [2] is reported as 0%. For the same compound, the activity at 200 µg/mL [2] was 0% and the activity at 400 µg/mL [2] was 0%.

“A. terreus ODC (Aspergillus terreus NIH2624)” was tested, and the Km [7] was 1400 µM, the kcat/Km [7] was 0.0246 M⁻¹ s⁻¹ and the Km [8] was 1340 µM. It also gave a kcat/Km [8] of 0.0283 M⁻¹ s⁻¹.

`N[C@@H](Cc1ccc(O)cc1)C(=O)O` [L-tyrosine] was tested, and the “affinity” value [1] was “no detectable affinity”.

With `CC(C)[C@H](N)C(=O)O` [L-valine] the “affinity” value [1] was “no detectable affinity”.

With `NCCCC(N)(C(=O)O)C(F)F` (stereo not drawn) [DFMO, Difluoromethylornithine] the “Relative Activity (%)” value ([2]; inhibitor 5 µg/mL) was 8%, the “Relative Activity (%)” value ([2]; inhibitor 40 µg/mL) was 0.1% and the “Relative Activity (%)” value ([2]; inhibitor 200 µg/mL) was 0%. For the same compound, the “Relative Activity (%)” value ([2]; inhibitor 400 µg/mL) was 0% and the IC50 ([2]; purified A. terreus ODC) was 0.02 µg/mL.

For `N[C@@H](CS)C(=O)O` [L-cysteine], the “affinity” value [1] was “no detectable affinity”.

With `NCCCC[C@H](N)C(=O)O` [L-Lysine] the “Diacetyl Monoxime Assay Activity” value ([3]; deiminating activity) was 0.0045 µmol/mg/min, the “Diacetyl Monoxime Assay Relative Activity” value ([3]; deiminating activity, normalized to L-ornithine) was 128% and the “TNBS Assay Activity” value [4] was 0.44 µmol/mg/min. The “TNBS Assay Relative Activity” value [4] was 20.9%, the “Nessler's Assay Activity” value [5] was 0 µmol/mg/min and the “Nessler's Assay Relative Activity” value [5] was 0%.

`N[C@@H](Cc1c[nH]c2ccccc12)C(=O)O` [L-tryptophan] was tested, and the “affinity” value [1] was “no detectable affinity”.

Reference: paper PMC6696095, “Purification and Characterization of Ornithine Decarboxylase from Aspergillus terreus; Kinetics of Inhibition by Various Inhibitors” (Molecules, 2019)
